What all share (format): in vivo
For assay [1], the system named is Kochia (Kochia scoparia). Nature of the assay: Test A preemergence. Particulars: Bassia scoparia, pre-emergence, 240 h; for pest or weed control at 125 g/ha: 125 g ai/ha; for pest or weed control at 500 g/ha: 500 g ai/ha. Summed up: (§1)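 Visual injury scores from 0, no effect, to 100, complete control, were assigned versus untreated controls roughly 10 d after treatment in the greenhouse. Test chemicals, formulated with surfactant in a non-phytotoxic solvent, were applied to planted seeds as a preemergence soil spray or postemergence to one- to two-leaf plants 2 to 10 cm tall, in loam–sand soil.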

In assay [2] the test system is barnyardgrass (Echinochloa crus-galli). In words: Test A preemergence. As to conditions: Echinochloa crus-galli, pre-emergence, 240 h; for pest or weed control at 125 g/ha: 125 g ai/ha; for pest or weed control at 500 g/ha: 500 g ai/ha. Summed up:
as §1

Assay [3] deals with giant foxtail (Setaria faberii). In words: Test A preemergence. As to conditions: Setaria faberi, pre-emergence, 240 h; for pest or weed control at 125 g/ha: 125 g ai/ha; for pest or weed control at 500 g/ha: 500 g ai/ha. Summed up: as §1
Assay [4] concerns pigweed (Amaranthus retroflexus). In words: Test A preemergence. Particulars: Amaranthus retroflexus, pre-emergence, 240 h; for pest or weed control at 125 g/ha: 125 g ai/ha; for pest or weed control at 500 g/ha: 500 g ai/ha.
Assay [5] has as its system ragweed (common ragweed, Ambrosia elatior). In words: Test A preemergence. Particulars: Ambrosia artemisiifolia, pre-emergence, 240 h; for pest or weed control at 125 g/ha: 125 g ai/ha; for pest or weed control at 500 g/ha: 500 g ai/ha. Summed up:
as §1

The test system of assay [6] is ryegrass, Italian (Italian ryegrass, Lolium multiflorum). In words: Test A preemergence. As to conditions: Lolium multiflorum, pre-emergence, 240 h; for pest or weed control at 125 g/ha: 125 g ai/ha; for pest or weed control at 500 g/ha: 500 g ai/ha. Summed up:
as §1

The subject of assay [7] is Galium (catchweed bedstraw, Galium aparine). In words: Test A postemergence. Particulars: Galium, post-emergence, 240 h; for pest or weed control at 125 g/ha: 125 g ai/ha. Summed up:
as §1

The test system of assay [8] is barnyardgrass (Echinochloa crus-galli). In words: Test A postemergence. Particulars: Echinochloa crus-galli, post-emergence, 240 h, read-out: Plant response rating, Barnyardgrass; for pest or weed control at 125 g/ha: 125 g ai/ha, Postemergence, visual injury after approximately 10 d, 0 to 100 scale where 0 is no effect and 100 is complete control. Summed up:
as §1

Assay [9] has as its system corn (Zea mays). Nature of the assay: Test A postemergence. As to conditions: Zea mays, post-emergence, 240 h; for Corn plant response rating (crop injury, 0 = no effect, 100 = complete kill) at 125 g/ha: 125 g ai/ha, Postemergence, visual injury after approximately 10 d, 0 to 100 scale where 0 is no effect and 100 is complete control. Summed up: as §1
For assay [10], the system named is ragweed (common ragweed, Ambrosia elatior). In words: Test A postemergence. As to conditions: Ambrosia artemisiifolia, post-emergence, 240 h; for pest or weed control at 125 g/ha: 125 g ai/ha. Summed up: as §1
Assay [11] has as its system barnyardgrass (Echinochloa crus-galli). In words: Test B flooded paddy test. As to conditions: Echinochloa crus-galli, 250 g ai/ha, Flood, read-out: Barnyardgrass plant response rating. Summed up:
(§2)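 Response scored visually against untreated controls, 0 = no effect and 100 = complete control, 13–15 d after treatment in the greenhouse. Compounds added to paddy water held 3 cm above soil surface. Treatment given at 2-leaf stage.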

Assay [12] relates to ducksalad (Heteranthera limosa). In words: Test B flooded paddy test. Particulars: Heteranthera limosa, 250 g ai/ha, Flood, read-out: Ducksalad plant response rating. Summed up:
as §2

Assay [13] has as its system rice (Oryra sativa). In words: Test B flooded paddy test. As to conditions: Oryza sativa, 250 g ai/ha, Flood, read-out: Rice plant response rating. Summed up: as §2
Assay [14] has as its system sedge, umbrella (small-flower umbrella sedge, Cyperus difformis). In words: Test B flooded paddy test. As to conditions: Cyperus difformis, 250 g ai/ha, Flood, read-out: Sedge, Umbrella plant response rating. Summed up: as §2
Setting [15] is: 500 g ai/ha, postemergence, visual injury, 0 to 100 scale (0 no effect, 100 complete control), approx. 10 d.
[16] abbreviates: 0 to 100 scale where 0 is no effect and 100 is complete control.
Setting [17] is: scale of 0 to 100 where 0 is no effect and 100 is complete control.

Like-named read-outs stand apart in the source and are kept apart here.

On to `Cc1ccc([C@H]2CNC(=O)[C@@H]2C(=O)Nc2cccc(F)c2F)cc1C` [Compound 1034], for which the pest or weed control at 125 g/ha in assay [1] (Preemergence, visual injury rating after approximately 10 d, read-out: Kochia plant response rating (0 to 100 scale, 0 is no effect, 100 is complete control)) turned out to be 60%; in assay [2] (Preemergence, visual injury rating after approximately 10 d, read-out: Barnyardgrass plant response rating (0 to 100 scale, 0 is no effect, 100 is complete control)), 90%; in [3] (Preemergence, visual injury rating after approximately 10 d, read-out: Foxtail, Giant plant response rating (0 to 100 scale, 0 is no effect, 100 is complete control)), 80%; in [4] (Preemergence, visual injury rating after approximately 10 d, read-out: Pigweed plant response rating (0 to 100 scale, 0 is no effect, 100 is complete control)), 0%; in assay [5] (Preemergence, visual injury rating after approximately 10 d, read-out: Ragweed plant response rating (0 to 100 scale, 0 is no effect, 100 is complete control)), 30%; in assay [6] (Preemergence, visual injury rating after approximately 10 d, read-out: Ryegrass, Italian plant response rating (0 to 100 scale, 0 is no effect, 100 is complete control)), 20%. In addition, the pest or weed control at 125 g/ha in assay [7] (postemergence, visual injury on 0 to 100 scale (0 no effect, 100 complete control), approx. 10 d, read-out: Galium plant response rating) was found to be 40%; in assay [8], 90%; in assay [10] (postemergence, visual injury on 0 to 100 scale (0 no effect, 100 complete control), approx. 10 d, read-out: Ragweed plant response rating) it was 10%. Besides, the pest or weed control at 500 g/ha amounted to 70% in assay [1] (preemergence, visual injury rating about 10 d after treatment, 0 to 100 scale (0 no effect, 100 complete control), read-out: Kochia plant response rating); 90% in assay [2] (preemergence, visual injury rating about 10 d after treatment, 0 to 100 scale (0 no effect, 100 complete control), read-out: Barnyardgrass plant response rating); 90% in assay [3] (preemergence, visual injury rating about 10 d after treatment, 0 to 100 scale (0 no effect, 100 complete control), read-out: Foxtail, Giant plant response rating); 0% in assay [4] (preemergence, visual injury rating about 10 d after treatment, 0 to 100 scale (0 no effect, 100 complete control), read-out: Pigweed plant response rating); 90% in assay [5] (preemergence, visual injury rating about 10 d after treatment, 0 to 100 scale (0 no effect, 100 complete control), read-out: Ragweed plant response rating); 60% in assay [6] (preemergence, visual injury rating about 10 d after treatment, 0 to 100 scale (0 no effect, 100 complete control), read-out: Ryegrass, Italian plant response rating). Further, the pest or weed control at 500 g/ha in assay [7] (500 g ai/ha, postemergence, visual injury, 0 to 100 scale (0 no effect, 100 complete control), approx. 10 d, read-out: Plant response rating, Galium) turned out to be 60%; in assay [8] (setting [15]), 90%; in assay [10] (500 g ai/ha, postemergence, visual injury, 0 to 100 scale (0 no effect, 100 complete control), approx. 10 d, read-out: Plant response rating, Ragweed), 40%. In addition, the Corn plant response rating (crop injury, 0 = no effect, 100 = complete kill) at 125 g/ha in assay [9] amounted to 10%. In addition, the Corn plant response rating (crop injury, 0 = no effect, 100 = complete kill) at 500 g/ha in assay [9] (setting [15]) is 50%. The pest or weed control at 250 g/ha is 60% in [11] (setting [16]), 100% in assay [12] (setting [16]), 0% in assay [13] (setting [16]) and 0% in [14] (setting [16]).

For `CN1CC[C@H](c2cccc(Cl)c2)[C@@H](C(=O)Nc2cccc(Cl)c2F)C1=O` [Compound 924], the pest or weed control at 125 g/ha in assay [1] (preemergence, 0 to 100 scale where 0 is no effect and 100 is complete control, read-out: Kochia plant response rating) stood at 0%; in assay [2] (preemergence, 0 to 100 scale where 0 is no effect and 100 is complete control, read-out: Barnyardgrass plant response rating) it was 90%; in [3] (preemergence, 0 to 100 scale where 0 is no effect and 100 is complete control, read-out: Foxtail, Giant plant response rating), 90%; in assay [4] (preemergence, 0 to 100 scale where 0 is no effect and 100 is complete control, read-out: Pigweed plant response rating) it was 0%; in [5] (preemergence, 0 to 100 scale where 0 is no effect and 100 is complete control, read-out: Ragweed plant response rating), 0%; in [6] (preemergence, 0 to 100 scale where 0 is no effect and 100 is complete control, read-out: Ryegrass, Italian plant response rating), 20%. The pest or weed control at 125 g/ha was 0% in assay [7] (Postemergence, visual injury after approximately 10 d, 0 to 100 scale where 0 is no effect and 100 is complete control, read-out: Plant response rating, Galium); 90% in assay [8]; 0% in assay [10] (Postemergence, visual injury after approximately 10 d, 0 to 100 scale where 0 is no effect and 100 is complete control, read-out: Plant response rating, Ragweed). The pest or weed control at 500 g/ha is 0% in [1] (Preemergence, visual injury vs untreated controls after approximately 10 d, read-out: Kochia plant response rating (0 to 100 scale where 0 is no effect and 100 is complete control)); 90% in assay [2] (Preemergence, visual injury vs untreated controls after approximately 10 d, read-out: Barnyardgrass plant response rating (0 to 100 scale where 0 is no effect and 100 is complete control)); 90% in assay [3] (Preemergence, visual injury vs untreated controls after approximately 10 d, read-out: Foxtail, Giant plant response rating (0 to 100 scale where 0 is no effect and 100 is complete control)); 0% in assay [4] (Preemergence, visual injury vs untreated controls after approximately 10 d, read-out: Pigweed plant response rating (0 to 100 scale where 0 is no effect and 100 is complete control)); 0% in [5] (Preemergence, visual injury vs untreated controls after approximately 10 d, read-out: Ragweed plant response rating (0 to 100 scale where 0 is no effect and 100 is complete control)); 70% in assay [6] (Preemergence, visual injury vs untreated controls after approximately 10 d, read-out: Ryegrass, Italian plant response rating (0 to 100 scale where 0 is no effect and 100 is complete control)). The compound further yielded a Corn plant response rating (crop injury, 0 = no effect, 100 = complete kill) at 125 g/ha in assay [9] of 0%. Moreover, the pest or weed control at 250 g/ha was determined as 50% in [11] (setting [17]), 70% in assay [12] (setting [17]), 0% in assay [13] (setting [17]) and 0% in assay [14] (setting [17]).

For the origin of these results see patent publication US12077503B2, “Substituted cyclic amides and their use as herbicides” (FMC CORPORATION, priority 2015, dated 2024).
